Experimental data published in patent publication US20250304559A1, “Ether-Linked Antiviral Compounds” (Pfizer Inc., priority 2021, published 2025).
Read-outs that look alike come from different tables or passages of the source.

Tests used:
SARS-CoV-2 3CL protease = target: T1, SARS-CoV-2 3CL protease (Severe acute respiratory syndrome coronavirus 2, UniProt P0DTD1); assay: SARS-CoV-2 Coronavirus 3C Protease FRET Assay; format: biochemical; conditions: Morrison equation fit, 15 nM enzyme, 25 μM peptide substrate
T1 construct: measures the activity of full-length SARS-CoV-2 3CL protease

[1] = test system: SARS-CoV-2 (USA_WA1/2020); assay: Antiviral Activity from SARS-CoV-2 Infection (cytopathic effect, Cell Titer-Glo); format: cell-based; conditions: Severe acute respiratory syndrome coronavirus 2, Vero C1008, 72 h, VeroE6 cells enriched for hACE2, MOI 0.002, 3-day incubation; tested alone or with P-gp inhibitor CP-100356 2 μM (table does not say which); read-out: Geometric Mean EC50
[2] = Examples 14-78 and 114 (second head of Table 2), read-out: Geometric Mean Ki (nM) IC50
[3] = Examples 1-13, 60 minutes at 23° C., read-out: Geometric Mean Ki

`CC(C)[C@H](NC(=O)C(F)(F)F)C(=O)N1C[C@H]2[C@@H]([C@H]1C(=O)N[C@@H](C[C@@H]1CCNC1=O)C(=O)COc1nc(C(F)(F)F)nn1C)C2(C)C` [Example 55, (1R,2S,5S)-6,6-dimethyl-N-{(2S)-4-{[1-methyl-3-(trifluoromethyl)-1H-1,2,4-triazol-5-yl]oxy}-3-oxo-1-[(3S)-2-oxopyrrolidin-3-yl]butan-2-yl}-3-[N-(trifluoroacetyl)-L-valyl]-3-azabicyclo[3.1.0]hexane-2-carboxamide] gave a Ki (SARS-CoV-2 3CL protease; [2]) of 11.6 nM and an EC50 [1] of 642 nM.
Work on `COc1ccc(COCC(=O)[C@H](C[C@@H]2CCNC2=O)NC(=O)[C@@H]2[C@@H]3[C@H](CN2C(=O)[C@@H](NC(=O)C(F)(F)F)C(C)(C)C)C3(C)C)cc1` [Example 14, (1R,2S,5S)-N-{(2S)-4-[(4-methoxyphenyl)methoxy]-3-oxo-1-[(3S)-2-oxopyrrolidin-3-yl]butan-2-yl}-6,6-dimethyl-3-[3-methyl-N-(trifluoroacetyl)-L-valyl]-3-azabicyclo[3.1.0]hexane-2-carboxamide] yielded a Ki (SARS-CoV-2 3CL protease; [2]) of 3.48 nM and an EC50 [1] of 48.7 nM.
`CC(C)[C@H](NC(=O)C(F)(F)F)C(=O)N1C[C@H]2[C@@H]([C@H]1C(=O)N[C@@H](C[C@@H]1CCNC1=O)C(=O)COc1cc(F)ccc1F)C2(C)C` [Example 53, (1R,2S,5S)-N-{(2S)-4-(2,5-difluorophenoxy)-3-oxo-1-[(3S)-2-oxopyrrolidin-3-yl]butan-2-yl}-6,6-dimethyl-3-[N-(trifluoroacetyl)-L-valyl]-3-azabicyclo[3.1.0]hexane-2-carboxamide] gave a Ki (SARS-CoV-2 3CL protease; [2]) of 12 nM and an EC50 [1] of 72.8 nM.
Work on `Cc1cc(OCC(=O)[C@H](C[C@@H]2CCNC2=O)NC(=O)[C@@H]2[C@@H]3[C@H](CN2C(=O)[C@@H](NC(=O)C(F)(F)F)C(C)C)C3(C)C)no1` [Example 61, (1R,2S,5S)-6,6-dimethyl-N-{(2S)-4-[(5-methyl-1,2-oxazol-3-yl)oxy]-3-oxo-1-[(3S)-2-oxopyrrolidin-3-yl]butan-2-yl}-3-[N-(trifluoroacetyl)-L-valyl]-3-azabicyclo[3.1.0]hexane-2-carboxamide] yielded a Ki (SARS-CoV-2 3CL protease; [2]) of 31.7 nM and an EC50 [1] of 1800 nM.
For `Cn1nc(C(F)(F)F)cc1OCC(=O)[C@H](C[C@@H]1CCNC1=O)NC(=O)[C@@H]1[C@@H]2[C@H](CN1C(=O)[C@@H](NS(=O)(=O)C(F)(F)F)C(C)(C)C)C2(C)C` [Example 6, (1R,2S,5S)-6,6-dimethyl-N-{(2S)-4-{[1-methyl-3-(trifluoromethyl)-1H-pyrazol-5-yl]oxy}-3-oxo-1-[(3S)-2-oxopyrrolidin-3-yl]butan-2-yl}-3-{3-methyl-N-[(trifluoromethyl)sulfonyl]-L-valyl}-3-azabicyclo[3.1.0]hexane-2-carboxamide], the Ki (SARS-CoV-2 3CL protease; [3]) was 19.8 nM and the EC50 [1] was 735 nM.
For `CC(C)[C@H](NS(C)(=O)=O)C(=O)N1CCC(C)(C)CC1C(=O)N[C@@H](C[C@@H]1CCNC1=O)C(=O)COc1ccc(F)cc1F` (single isomer, unassigned) [Example 60, (2R*)-N-{(2S)-4-(2,4-difluorophenoxy)-3-oxo-1-[(3S)-2-oxopyrrolidin-3-yl]butan-2-yl}-1-[N-(methanesulfonyl)-L-valyl]-4,4-dimethylpiperidine-2-carboxamide], the Ki (SARS-CoV-2 3CL protease; [2]) was 21.8 nM and the EC50 [1] was 456 nM.
With `CC(C)[C@H](NC(=O)C(F)(F)F)C(=O)N1C[C@H]2[C@@H]([C@H]1C(=O)N[C@@H](C[C@@H]1CCNC1=O)C(=O)COc1ccc(F)cc1F)C2(C)C` [Example 1, (1R,2S,5S)-N-{(2S)-4-(2,4-difluorophenoxy)-3-oxo-1-[(3S)-2-oxopyrrolidin-3-yl]butan-2-yl}-6,6-dimethyl-3-[N-(trifluoroacetyl)-L-valyl]-3-azabicyclo[3.1.0]hexane-2-carboxamide] the Ki (SARS-CoV-2 3CL protease; [3]) was 2.02 nM and the EC50 [1] was 26.9 nM.
`CC(C)[C@H](NC(=O)C(F)(F)F)C(=O)N1C[C@H]2[C@@H]([C@H]1C(=O)N[C@@H](C[C@@H]1CCNC1=O)C(=O)COc1ccccc1)C2(C)C` [Example 23, (1R,2S,5S)-6,6-dimethyl-N-{(2S)-3-oxo-1-[(3S)-2-oxopyrrolidin-3-yl]-4-phenoxybutan-2-yl}-3-[N-(trifluoroacetyl)-L-valyl]-3-azabicyclo[3.1.0]hexane-2-carboxamide] showed a Ki (SARS-CoV-2 3CL protease; [2]) of 1.78 nM and an EC50 [1] of 32 nM.
Molecule `CC(C)[C@H](NC(=O)C(F)(F)F)C(=O)N1C[C@H]2[C@@H]([C@H]1C(=O)N[C@@H](C[C@@H]1CC(=O)NC1=O)C(=O)COc1ccc(F)cc1F)C2(C)C` [Example 42, (1R,2S,5S)-N-{(2S)-4-(2,4-difluorophenoxy)-1-[(3R)-2,5-dioxopyrrolidin-3-yl]-3-oxobutan-2-yl}-6,6-dimethyl-3-[N-(trifluoroacetyl)-L-valyl]-3-azabicyclo[3.1.0]hexane-2-carboxamide] has a Ki (SARS-CoV-2 3CL protease; [2]) of 7.05 nM and an EC50 [1] of 301 nM.
In the case of `CC(C)[C@H](NC(=O)C(F)(F)F)C(=O)N1C[C@H]2[C@@H]([C@H]1C(=O)NC(C[C@@H]1CCNC1=O)C(=O)COc1ccc(F)cc1F)C2(C)C` (mixture of isomers) [Example 35, (1R,2S,5S)-N-{(2RS)-4-(2,4-difluorophenoxy)-3-oxo-1-[(3S)-2-oxopyrrolidin-3-yl]butan-2-yl}-6,6-dimethyl-3-[N-(trifluoroacetyl)-L-valyl]-3-azabicyclo[3.1.0]hexane-2-carboxamide], the Ki (SARS-CoV-2 3CL protease; [2]) is reported as 2.76 nM and the EC50 [1] is reported as 93.8 nM.
`CC(C)(C)[C@H](NC(=O)C(F)(F)F)C(=O)N1C[C@H]2[C@@H]([C@H]1C(=O)N[C@@H](C[C@@H]1CCNC1=O)C(=O)COc1cccc(C(F)(F)F)c1)C2(C)C` [Example 12, (1R,2S,5S)-6,6-dimethyl-3-[3-methyl-N-(trifluoroacetyl)-L-valyl]-N-{(2S)-3-oxo-1-[(3S)-2-oxopyrrolidin-3-yl]-4-[3-(trifluoromethyl)phenoxy]butan-2-yl}-3-azabicyclo[3.1.0]hexane-2-carboxamide] gave a Ki (SARS-CoV-2 3CL protease; [3]) of 6.38 nM and an EC50 [1] of 51.2 nM.
For `CCn1nc(C)cc1OCC(=O)[C@H](C[C@@H]1CCNC1=O)NC(=O)[C@@H]1[C@@H]2[C@H](CN1C(=O)[C@@H](NC(=O)OC)C(C)(C)C)C2(C)C` [Example 33, methyl {(2S)-1-[(1R,2S,5S)-2-({(2S)-4-[(1-ethyl-3-methyl-1H-pyrazol-5-yl)oxy]-3-oxo-1-[(3S)-2-oxopyrrolidin-3-yl]butan-2-yl}carbamoyl)-6,6-dimethyl-3-azabicyclo[3.1.0]hexan-3-yl]-3,3-dimethyl-1-oxobutan-2-yl}carbamate], the Ki (SARS-CoV-2 3CL protease; [2]) was 3.04 nM and the EC50 [1] was 1270 nM.
Molecule `Cc1ccc2nc(OCC(=O)[C@H](C[C@@H]3CCNC3=O)NC(=O)[C@@H]3[C@@H]4[C@H](CN3C(=O)[C@@H](NC(=O)C(F)(F)F)C(C)C)C4(C)C)oc2c1` [Example 72, (1R,2S,5S)-6,6-dimethyl-N-{(2S)-4-[(6-methyl-1,3-benzoxazol-2-yl)oxy]-3-oxo-1-[(3S)-2-oxopyrrolidin-3-yl]butan-2-yl}-3-[N-(trifluoroacetyl)-L-valyl]-3-azabicyclo[3.1.0]hexane-2-carboxamide] has a Ki (SARS-CoV-2 3CL protease; [2]) of 505 nM and an EC50 [1] of 19000 nM.
`CC(C)[C@H](NC(=O)C(F)(F)F)C(=O)N1C[C@H]2[C@@H]([C@H]1C(=O)N[C@@H](C[C@@H]1CCNC1=O)C(=O)COc1cc(F)cc(F)c1)C2(C)C` [Example 58, (1R,2S,5S)-N-{(2S)-4-(3,5-difluorophenoxy)-3-oxo-1-[(3S)-2-oxopyrrolidin-3-yl]butan-2-yl}-6,6-dimethyl-3-[N-(trifluoroacetyl)-L-valyl]-3-azabicyclo[3.1.0]hexane-2-carboxamide] gave a Ki (SARS-CoV-2 3CL protease; [2]) of 17.1 nM and an EC50 [1] of 88.7 nM.
`COC(=O)N[C@H](C(=O)N1C[C@H]2[C@@H]([C@H]1C(=O)N[C@@H](C[C@@H]1CCNC1=O)C(=O)COc1cccc(Cl)c1)C2(C)C)C(C)C` [Example 25, methyl {(2S)-1-[(1R,2S,5S)-2-({(2S)-4-(3-chlorophenoxy)-3-oxo-1-[(3S)-2-oxopyrrolidin-3-yl]butan-2-yl}carbamoyl)-6,6-dimethyl-3-azabicyclo[3.1.0]hexan-3-yl]-3-methyl-1-oxobutan-2-yl}carbamate] was tested, and the Ki (SARS-CoV-2 3CL protease; [2]) was 1.76 nM and the EC50 [1] was 38.2 nM.
